Experimental data reported in PubChem BioAssay (NCI).
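Protocol summary: plate cells (96-well), add compound at 5 concentrations, incubate 48 h, interpolate endpoints linearly. GI50 is the concentration that inhibits growth by half. The concentration for full growth arrest is given as TGI.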

Assays:
Experiment in all cases: NCI tumour cell line growth inhibition, 48 h
IGROV1 ovarian = test system: IGROV1 ovarian
UACC-257 melanoma = test system: UACC-257 melanoma
786-0 renal = test system: 786-0 renal
A498 renal = test system: A498 renal
COLO 205 colon = test system: COLO 205 colon
SNB-75 CNS = test system: SNB-75 CNS
SF-268 CNS = test system: SF-268 CNS
CAKI-1 renal = test system: CAKI-1 renal

Compound | GI50 (IGROV1 ovarian) | TGI (IGROV1 ovarian) | GI50 (UACC-257 melanoma) | TGI (UACC-257 melanoma) | GI50 (786-0 renal) | TGI (786-0 renal) | GI50 (A498 renal) | TGI (A498 renal) | GI50 (COLO 205 colon) | TGI (COLO 205 colon) | GI50 (SNB-75 CNS) | TGI (SNB-75 CNS) | GI50 (SF-268 CNS) | TGI (SF-268 CNS) | GI50 (CAKI-1 renal) | TGI (CAKI-1 renal)
C#CC[C@@H]1C[C@]2(C)[C@H]3CC[C@@H]4[C@H]5[C@H](C(=C)C)CC[C@]5(C(=O)O)CC[C@@]4(C)[C@]3(C)CC[C@H]2C(C)(C)[C@H]1O | 4.21 µM | 15.6 µM | 3.73 µM | 13.4 µM | 1.71 µM | 3.4 µM | 1.88 µM | 4.19 µM | 2.09 µM | 4.68 µM | 1.95 µM | 4.12 µM | 2.81 µM | 10.1 µM |  | 
CCOC(=O)c1ccc2c(c1)[n+](=O)c(C(=O)c1ccc3ccccc3c1)c(C(F)(F)F)n2[O-] | 0.361 µM | 1.21 µM | 1.79 µM | 3.24 µM | 1.61 µM | 2.99 µM | 1.66 µM | 3.09 µM | 1.52 µM | 2.87 µM | 1.13 µM | 2.34 µM | 1.15 µM | 2.36 µM | 1.42 µM | 2.85 µM
CC1(C)CC(=O)C(C(c2cccc(O)c2O)C2C(=O)CC(C)(C)CC2=O)C(=O)C1 |  | > 100 µM |  | > 100 µM |  | > 100 µM |  | > 100 µM |  | > 100 µM |  | > 100 µM |  | > 100 µM |  | > 100 µM
CCOCCc1c(O)nc(SC)[nH]c1=O | > 100 µM | > 100 µM | > 100 µM | > 100 µM | > 100 µM | > 100 µM | > 100 µM | > 100 µM | > 100 µM | > 100 µM | > 100 µM | > 100 µM | > 100 µM | > 100 µM | > 100 µM | > 100 µM
Fc1ccc(-c2ncn(C3CCNCC3)c2-c2ccnc(Oc3ccccc3)n2)cc1 | 13.5 µM | > 25 µM | 12.5 µM | > 25 µM | > 22.5 µM | > 25 µM | > 16.1 µM | > 25 µM | 7.32 µM | 18.6 µM | > 19.3 µM | > 25 µM | > 25 µM | > 25 µM | 18.4 µM | > 25 µM
CCOC(=O)c1c[nH]c2c(OCc3ccccc3)c3ccccc3c(O)c2c1=O | 34.4 µM | > 100 µM | 2.52 µM | 6.63 µM | 18.6 µM | 57.4 µM | 27.3 µM | > 78.1 µM | 47 µM | > 100 µM | 11.6 µM | > 54.4 µM | 12.9 µM | 50.7 µM | 4.37 µM | 21.1 µM
O=C(/C=C/c1ccccn1)c1ccccc1O | 1.76 µM | 3.36 µM | 2.22 µM | 5.71 µM | 1.75 µM | 3.14 µM | 2.21 µM | 7.14 µM | 1.69 µM | 3.3 µM | 1.79 µM | 4.24 µM | 2.53 µM | 7.02 µM | 1.58 µM | 3.21 µM
